Patent US20210212984A1, “FORMULATION FOR PAIN MANAGEMENT” (Zyus Life Sciences Inc., priority 2019, published 2021)
“And” between values parts separate entries of the source, which are not always exact repeats. Identical values can stand only once.

Assays:
Format in all cases: in vivo, Sprague-Dawley rats
SNL operated SD rats [1] = assay: Tactile allodynia test, electronic von Frey (evF), paw withdrawal threshold in spinal nerve ligation (SNL) rats
Method: Spinal Nerve Ligation (SNL) Surgery. The animals were enrolled to SNL surgery in daily cohorts of n=6. The rats first received an intraperitoneal dose of 0.03 mg/kg buprenorphine (Temgesic), minimum of 30 minutes prior to the surgery, to alleviate the operative and postoperative pain unrelated to neuropathy. Prior to spinal nerve ligation (SNL) procedure, the rats were anesthetized with isoflurane in 70% N2O and 30% O2; with a flow rate of 300 ml/min. Anesthesia was inducted in a chamber with 5% isoflurane for 2-3 min, and maintained through a snout mask with 1-2% isoflurane thereafter. A homeothermic blanket system was used for the rectal temperature to be monitored and maintained at 37.0° C.±1.5° C. during the operation.
A dorsal incision extending from L3 to S2 was performed to the medial dorsal area of the rat using aseptic technique. The L6/S1 posterior interarticular process was exposed using a combination of blunt and sharp dissection. The L6 transverse process in the spinal column was visualized and partially removed without manipulating the nerves, followed by exposing the L4 and L5 spinal nerves distal to their emergence from the intervertebral foramina.
The L5 nerve was ligated tightly with 6-0 silk suture. The L6 nerve was then located caudal and medial to the sacroiliac junction and tightly ligated with 6-0 silk suture, similarly to L5. Both ligatures were performed as double knots.
Tactile Allodynia Test (evF) and Pre-Handling and Baseline evF. In this study, mechanical sensitivity to touch stimuli was defined at four timepoints by using electronic von Frey (evF) device along with the attached analysis software (Somedic®, Sweden).
To perform the evF test, the rats were placed in individual von Frey test chambers standing on an elevated steel mesh. The rats were then allowed to adapt in the chambers, and the test per se was emerged after they have settled down followed by investigating the chamber and grooming (approximately 15 min). Test […] an animals were grooming, urinating, defecating or sleeping. Further description of test procedure is provided hereinbelow.
Conducting evF Test. Mechanical allodynia were assessed by evF test prior to SNL surgery (baseline), to define the individual sensitivity levels of the study animals. Next, the evF was performed on D 7 post-SNL, to assess the hypersensitivity evoked by the SNL surgery, and to provide pre-dosing sensitivity values for comparing. On D 8, the animals were subjected to the test at 2 h post-dosing (PD), at 4 h PD and at 8 h PD. Subsequently, the test was performed at 24 h PD, i.e. on D 9. On D 9, Group 2 received Pregabalin (i.p) at 2 h prior to testing.
The evF apparatus was used according to the manufacturer's instructions. Briefly, upon each measurement, the force is applied to mid-plantar surface of the hind paw in a linearly increasing rate.
The used evF probe diameter was 1 mm, and the chosen ascent rate of the force 10 g/s. The linearity of force application was monitored in real time. The applied force (in grams) causing paw withdrawal was recorded by the apparatus as the result for the trial.
Altogether, 5 repeated measurements were applied to each hind paw at each time-point leaving a minimum of 3-min interval between the repeats. Medians of the 5 measurement repeats were determined from each paw at any given time point. Both ipsi- and contralateral paws were also tested on each test day.

SNL operated SD rats [2] = assay: Fine motor kinematic gait analysis (MotoRater) in SNL rats; conditions: within group, D7 to 24 h PD
Method: Fine Motor Kinematic Gait Analysis. The rats were subjected to gait analysis at the baseline and on study days 8, 9, 11, 14 and 17, at a minimum of 30 min after the evF test. The assay were carried out by MotoRater (TSE Systems, Homburg, Germany), with the walking mode. Prior to commencing the test, the essential body points (e.g. joints, limbs, nose, tail) were marked for tracking. The information of the gait performance was captured using a high speed camera (300 frames/second) from below and both sides. Next, the captured videos were converted to SimiMotion™ software. The raw data were obtained by tracking the marked points of the body from the videos recorded from all 3 dimensions. […]
Different gait patterns and movements were analyzed using a custom-made automated analysis system. […]
All Motorater data were analyzed for the distinct parameters, as well as for all combined parameters, using principal component analysis (PCA). […]
Comprehensive kinematic analysis was performed by high sensitivity MotoRater that allows detection of any subtle to severe gait changes in SNL model. […] The fine motor capabilities and the gait of the animals were evaluated at the baseline and four times after the SNL surgery, 2 h, 5 h, 9 h and 24 hours post-dosing using the kinematic movement analysis of altogether 97 separate parameters that were recorded.

SNL operated SD rats [3] = assay: Data mining (contrastive PCA) of multivariate kinematic gait data: SNL model score and sedation score; conditions: 50 mg/kg
Method: In this Example, data mining was performed to extend the multivariate kinematic data analysis and capture (a) Parameters indicative of analgesia vs. sedation phenotypes (analgesic or sedation ‘fingerprint’) (b) Quantitative measurement of parameters attributed to the temporal aspects of motion to evaluate temporal aspects of motion, such as positions, angles, velocities, and accelerations of body segments and joints during motion. Briefly, Contrastive Principal Component Analysis (cPCA) was utilized to identify different combinations of original variables which were linked to model effect, learning effect, and sedative effects. An orthogonalization procedure was used to make the obtained effects independent. cPC scores corresponding to identified cPCs were computed. In order to evaluate the analgesic and sedative effects of CBD:CBC:THC 5:5:5 mg/kg group, separate comparisons were performed with vehicle and pregabalin as controls, CBD+THC 10:10 mg/kg as positive control for sedation and CBC 10 mg/kg as negative control for sedation. The results of these comparisons were obtained by using all the previously identified components: model effect, learning effect and model orthogonal to learning, sedation orthogonal to model, and finally, the sedation orthogonal to both model and learning. […]

## CC(C)C[C@H](CN)CC(=O)O [Pregabalin]
SNL operated SD rats [1]; 5 mg/kg subset, labelled group vs. CBD + THC + CBC 5:5:1 mg/kg
  Mean Diff, evF AUC: 13.8 and 14
SNL operated SD rats [1]; 5 mg/kg subset, labelled group vs. Vehicle
  Mean Diff, evF AUC: 29.8 and 30
SNL operated SD rats [1]; Table 2B, 5 mg/kg subset, AUC of % of baseline PWT, pre-dosing to 24 h post-dosing, dose as in label, cannabinoids p.o. D8, Pregabalin 50 mg/kg i.p.
  Mean (Mean 1/Mean 2), electronic von Frey Area Under the Curve (AUC): 271
SNL operated SD rats [1]; Table 3, 10 mg/kg subset, AUC of % of baseline PWT, pre-dosing to 24 h post-dosing, dose as in label, cannabinoids p.o. D8, Pregabalin 50 mg/kg i.p.
  Mean (Mean 1/Mean 2), electronic von Frey AUC: 270.8
SNL operated SD rats [1]; Table 3, labelled group vs. CBD + THC 10 mg/kg
  Mean Diff, evF AUC: −63.2
SNL operated SD rats [1]; Table 3, labelled group vs. CBD + THC 10 mg/kg + CBC 2 mg/kg
  Mean Diff, evF AUC: −49.2
SNL operated SD rats [1]; Table 3, labelled group vs. Vehicle
  Mean Diff, evF AUC: 29.8
SNL operated SD rats [1]; vs. Vehicle, separate 'Tukey's multiple comparison test' block at foot of Tables 2A/2B
  Mean Diff, evF AUC: 29.8 and 30
SNL operated SD rats [2]
  overall gait score pattern over time, in words: increasing score until 9 h PD timepoint
SNL operated SD rats [3]
  analgesic or sedative effect in the kinematic data: no analgesic or sedative effect
